Test results published in ChEMBL document CHEMBL1201862, “PubChem BioAssay data set” (2004).
Calls of active or inactive are those of the source.

Assays:
Cytochrome P450 2D6 = Cytochrome P450 2D6 (Homo sapiens, UniProt P10635); test: qHTS Assay for Inhibitors and Substrates of Cytochrome P450 2D6. [Related pubchem assays: 410 ]; format: ADME; conditions: read-out: Potency
Ion channel NompC = Ion channel NompC (Danio rerio, UniProt Q7T1G6); test: Fluorescence counterscreen assay for TRPML3 agonists: dose response cell-based high-throughput screening assay to identify agonists of the transient receptor potential channel N1 (TRPN1). [Related pubchem assays: 1526, 1424, 1448 ]; format: functional
Mucolipin-3 = biological target: T1, Mucolipin-3 (Homo sapiens, UniProt Q8TDD5); test: Dose response cell-based high-throughput screening assay for agonists of the transient receptor potential channel ML3 (TRPML3). [Related pubchem assays: 1526, 1424, 1448 ]; format: functional
T1 sequence (Q8TDD5 whole entry): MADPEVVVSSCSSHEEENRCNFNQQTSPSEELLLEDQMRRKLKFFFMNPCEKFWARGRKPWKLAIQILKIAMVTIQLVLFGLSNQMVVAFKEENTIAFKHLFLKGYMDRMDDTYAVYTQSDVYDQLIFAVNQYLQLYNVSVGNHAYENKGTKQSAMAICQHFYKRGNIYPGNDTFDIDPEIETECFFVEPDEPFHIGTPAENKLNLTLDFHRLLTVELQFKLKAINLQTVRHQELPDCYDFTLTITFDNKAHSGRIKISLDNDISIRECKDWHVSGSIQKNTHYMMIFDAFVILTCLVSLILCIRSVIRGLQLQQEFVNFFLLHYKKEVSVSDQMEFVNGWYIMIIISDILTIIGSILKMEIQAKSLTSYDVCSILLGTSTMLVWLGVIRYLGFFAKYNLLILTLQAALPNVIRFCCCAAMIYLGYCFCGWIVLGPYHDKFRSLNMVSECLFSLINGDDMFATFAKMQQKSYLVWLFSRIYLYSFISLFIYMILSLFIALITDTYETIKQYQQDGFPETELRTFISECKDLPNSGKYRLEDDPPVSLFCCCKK

[1] = inhibitors of intracellular T. cruzi replication, confirmation, NIH3T3 host cells, beta-gal luminescence (AID 2044); format: functional, cell-based;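 also: intracellular parasites grown in NIH/3T3 mouse fibroblasts as host cells; luminescent beta-galactosidase reporter signal from transgenic T. cruzi replicating inside host cells; inhibitors lower the luminescence signal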
[2] = cytotoxicity toward NIH3T3 fibroblasts, dose response, counter-screen, cell-based, ATP luminescence, mouse fibroblasts (AID 2010); format: functional;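 also: cells exposed to compound for about 90 hours before reading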
[3] = biological target: T2, Scavenger receptor class B member 1 (Mus musculus, UniProt Q61009); test: inhibitors of SR-BI mediated HDL lipid uptake, dose response, ldlA[mSR-BI] cells, fluorescence, cherry pick (AID 493194); format: functional, cell-based;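 also: cellular uptake of fluorescent DiI-labeled HDL measured as cell fluorescence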
T2 sequence (Q61009 whole entry): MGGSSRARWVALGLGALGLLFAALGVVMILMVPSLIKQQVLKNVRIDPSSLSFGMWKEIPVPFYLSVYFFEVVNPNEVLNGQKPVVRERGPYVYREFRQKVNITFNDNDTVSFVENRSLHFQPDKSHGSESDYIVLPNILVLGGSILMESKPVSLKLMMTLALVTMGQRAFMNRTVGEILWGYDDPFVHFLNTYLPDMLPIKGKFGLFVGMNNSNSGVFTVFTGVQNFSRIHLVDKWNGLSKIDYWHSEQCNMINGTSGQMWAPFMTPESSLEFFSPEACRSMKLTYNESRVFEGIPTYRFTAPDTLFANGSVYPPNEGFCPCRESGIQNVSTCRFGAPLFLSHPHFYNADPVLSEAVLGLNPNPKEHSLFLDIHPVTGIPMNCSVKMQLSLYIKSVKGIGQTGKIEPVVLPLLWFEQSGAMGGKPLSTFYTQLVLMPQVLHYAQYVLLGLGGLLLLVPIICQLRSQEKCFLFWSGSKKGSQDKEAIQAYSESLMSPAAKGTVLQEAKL

[4] = biological target: T3, Lytic switch protein BZLF1 (Epstein-Barr virus (strain B95-8) (HHV-4) (Human herpesvirus 4), UniProt P03206); test: EBV ZTA inhibitors, dose response, counter-screen for EBNA-1 inhibitor project, biochemical, fluorescence polarization, Epstein-Barr virus, 1536-well (AID 2377); parameters: species or system human gammaherpesvirus 4;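 also: fluorescence polarization of Cy5-labelled ZRE DNA probe bound by purified Zta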
T3 sequence (P03206 whole entry): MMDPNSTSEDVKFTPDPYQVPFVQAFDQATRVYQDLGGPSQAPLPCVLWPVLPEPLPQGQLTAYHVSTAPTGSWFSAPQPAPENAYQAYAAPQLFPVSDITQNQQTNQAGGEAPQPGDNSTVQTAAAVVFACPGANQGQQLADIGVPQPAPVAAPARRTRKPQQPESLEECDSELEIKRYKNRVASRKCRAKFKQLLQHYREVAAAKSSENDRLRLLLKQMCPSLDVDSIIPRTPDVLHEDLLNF

[5] = biological target: T4, Epstein-Barr nuclear antigen 1 (Epstein-Barr virus (strain B95-8) (HHV-4) (Human herpesvirus 4), UniProt P03211); test: EBNA-1 inhibitors, dose response, biochemical, fluorescence polarization, 1536-well (AID 2381); parameters: species or system human gammaherpesvirus 4;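 also: fluorescence polarization of a Cy5 DNA probe bound by EBNA-1 protein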
T4 sequence (P03211 whole entry): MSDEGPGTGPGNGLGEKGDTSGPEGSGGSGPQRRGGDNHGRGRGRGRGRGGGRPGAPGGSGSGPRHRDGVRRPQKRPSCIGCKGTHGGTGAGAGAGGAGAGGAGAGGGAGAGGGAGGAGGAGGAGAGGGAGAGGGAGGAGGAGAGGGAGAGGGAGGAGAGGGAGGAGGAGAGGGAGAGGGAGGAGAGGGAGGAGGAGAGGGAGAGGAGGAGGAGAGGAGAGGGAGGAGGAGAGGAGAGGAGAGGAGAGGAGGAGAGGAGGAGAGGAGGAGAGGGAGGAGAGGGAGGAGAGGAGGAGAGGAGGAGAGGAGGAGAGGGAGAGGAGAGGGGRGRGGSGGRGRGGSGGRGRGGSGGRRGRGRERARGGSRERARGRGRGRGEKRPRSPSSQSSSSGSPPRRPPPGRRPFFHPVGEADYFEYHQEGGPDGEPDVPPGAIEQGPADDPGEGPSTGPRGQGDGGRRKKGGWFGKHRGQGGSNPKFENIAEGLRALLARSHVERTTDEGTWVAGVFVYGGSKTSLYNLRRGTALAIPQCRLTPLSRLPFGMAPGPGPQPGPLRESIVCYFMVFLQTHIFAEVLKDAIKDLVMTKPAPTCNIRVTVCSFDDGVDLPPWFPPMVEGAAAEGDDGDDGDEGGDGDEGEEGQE

[6] = biological target: Glyceraldehyde-3-phosphate dehydrogenase (Homo sapiens, UniProt P04406)
[7] = biological target: T5, Replicative DNA helicase DnaB (Mycobacterium tuberculosis, UniProt P9WMR3); test: DnaB intein splicing inhibitors, dose response, biochemical, cell-free fluorescence (AID 449749); format: functional
T5 sequence (P9WMR3 whole entry): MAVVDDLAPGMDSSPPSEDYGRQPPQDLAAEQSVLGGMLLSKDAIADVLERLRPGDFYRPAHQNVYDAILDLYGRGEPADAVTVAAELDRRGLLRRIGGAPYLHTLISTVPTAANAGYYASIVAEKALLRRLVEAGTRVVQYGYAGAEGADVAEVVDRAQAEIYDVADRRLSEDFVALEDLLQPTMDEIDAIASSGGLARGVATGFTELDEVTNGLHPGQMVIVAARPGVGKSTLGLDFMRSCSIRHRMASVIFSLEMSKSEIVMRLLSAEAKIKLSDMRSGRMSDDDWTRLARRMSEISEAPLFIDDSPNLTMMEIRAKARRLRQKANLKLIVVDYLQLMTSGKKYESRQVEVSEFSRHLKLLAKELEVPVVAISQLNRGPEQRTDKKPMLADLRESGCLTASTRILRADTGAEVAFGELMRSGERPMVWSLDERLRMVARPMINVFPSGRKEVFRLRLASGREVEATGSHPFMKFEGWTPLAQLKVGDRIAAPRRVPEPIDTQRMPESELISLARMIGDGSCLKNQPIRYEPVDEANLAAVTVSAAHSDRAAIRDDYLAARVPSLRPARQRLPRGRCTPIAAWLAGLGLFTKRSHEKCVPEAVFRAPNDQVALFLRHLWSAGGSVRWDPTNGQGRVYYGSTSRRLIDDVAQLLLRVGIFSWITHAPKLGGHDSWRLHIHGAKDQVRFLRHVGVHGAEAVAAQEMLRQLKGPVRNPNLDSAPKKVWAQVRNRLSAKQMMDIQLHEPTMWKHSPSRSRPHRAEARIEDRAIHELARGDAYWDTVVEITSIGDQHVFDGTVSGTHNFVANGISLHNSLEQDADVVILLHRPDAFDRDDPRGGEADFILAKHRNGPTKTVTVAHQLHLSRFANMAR

Genome polyprotein = Genome polyprotein (dengue virus type 2, UniProt P29990); test: Dengue-2 NS5 methyltransferase inhibitors, primary screen, biochemical, confirmation dose response (AID 588689); format: functional
Bcl-2-related protein A1 [8] = biological target: T6, Bcl-2-related protein A1 (Mus musculus, UniProt Q07440); test: Bfl-1 binding inhibitors, SAR follow-up, biochemical, fluorescence polarization (AID 1070)
T6 sequence (Q07440 whole entry): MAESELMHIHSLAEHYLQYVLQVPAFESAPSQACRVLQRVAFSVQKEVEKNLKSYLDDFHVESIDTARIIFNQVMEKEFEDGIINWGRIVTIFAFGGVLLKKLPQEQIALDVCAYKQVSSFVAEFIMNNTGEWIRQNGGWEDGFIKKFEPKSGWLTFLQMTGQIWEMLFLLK

Bcl-2-related protein A1 [9] = biological target: T6, Bcl-2-related protein A1; test: Bfl-1 inhibitors blocking BH3 peptide binding, confirmation, biochemical, TR-FRET, mouse Bfl-1 (AID 621);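 also: TR-FRET binding of GST-Bfl-1 to FITC-labelled Bid peptide via terbium antibody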
Protein RecA = biological target: T7, Protein RecA (Mycobacterium tuberculosis, UniProt P9WHJ3); test: Fluorescence Cell-Free Homogeneous Dose Retest to Identify Inhibitors of RecA-Intein Splicing Activity. [Related pubchem assays (depositor defined):AID2097, AID2223, AID489010, AID492950]; format: functional
T7 sequence (P9WHJ3 whole entry): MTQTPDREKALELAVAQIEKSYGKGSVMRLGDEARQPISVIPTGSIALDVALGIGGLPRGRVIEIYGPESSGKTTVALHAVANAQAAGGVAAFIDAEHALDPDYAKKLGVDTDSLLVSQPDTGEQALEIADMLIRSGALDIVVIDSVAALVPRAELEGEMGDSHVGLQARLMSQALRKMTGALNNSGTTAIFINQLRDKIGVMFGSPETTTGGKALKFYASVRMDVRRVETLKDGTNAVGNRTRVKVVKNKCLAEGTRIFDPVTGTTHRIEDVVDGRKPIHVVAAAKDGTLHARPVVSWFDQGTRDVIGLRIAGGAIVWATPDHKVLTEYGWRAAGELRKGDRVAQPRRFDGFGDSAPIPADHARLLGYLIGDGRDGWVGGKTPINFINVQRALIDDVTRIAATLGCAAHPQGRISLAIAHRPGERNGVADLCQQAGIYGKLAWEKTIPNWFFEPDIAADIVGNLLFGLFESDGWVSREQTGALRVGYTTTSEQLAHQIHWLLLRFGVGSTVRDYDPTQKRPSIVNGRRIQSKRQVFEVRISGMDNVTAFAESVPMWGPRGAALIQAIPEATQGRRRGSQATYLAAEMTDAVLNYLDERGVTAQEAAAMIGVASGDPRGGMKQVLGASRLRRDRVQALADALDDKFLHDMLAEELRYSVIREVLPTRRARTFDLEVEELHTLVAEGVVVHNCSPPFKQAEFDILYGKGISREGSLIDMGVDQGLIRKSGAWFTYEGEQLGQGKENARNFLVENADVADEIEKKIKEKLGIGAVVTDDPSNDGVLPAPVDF

Cytochrome P450 3A4 = Cytochrome P450 3A4 (Homo sapiens, UniProt P08684); conditions: Potency;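 also: confirmatory qHTS run detecting inhibitors and substrates of CYP3A4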
Cytochrome P450 2C9 = Cytochrome P450 2C9 (Homo sapiens, UniProt P11712); conditions: Potency
[10] = biological target: FAD-linked sulfhydryl oxidase ALR (Homo sapiens, UniProt P55789); test: inhibitors of human ALR sulfhydryl oxidase, dose response, biochemical, H2O2 detection, luminescence, cherry-pick (AID 493248)
[11] = biological target: Protein-tyrosine kinase 2-beta (Homo sapiens, UniProt Q14289);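 also: potency of inhibitors of PYK2 kinase phosphorylation of poly-GT substrate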

## CCCCCCCCCCCCC/C=C\[C@H](O)[C@H](N)CO
Cytochrome P450 2D6
  AC50: 12.6 µM (inconclusive)

## O=C1CN(S(=O)(=O)c2ccc(F)cc2)CC(=O)N1CCc1ccccc1
Ion channel NompC
  EC50: > 29.9 µM (not active)
Mucolipin-3
  EC50: 6.15 µM (active)

## c1ccc2c(C[n+]3csc4ccccc43)cccc2c1
Ion channel NompC
  EC50: > 29.9 µM (not active)
[1]
  EC50: 0.898 µM (active)
Mucolipin-3
  EC50: > 29.9 µM (not active)
[2]
  EC50: 22.3 µM (active)

## CCOc1ccc(NC(=O)CN2CCN(CC(=O)Nc3cc(OC)cc(OC)c3)CC2)cc1
[3]
  AC50: 0.414 µM (active)

## O=C(Nc1ccc(-c2nc3ccccc3o2)cc1)c1ccc(N2C(=O)C3C4C=CC(C4)C3C2=O)cc1 (stereo unspecified)
[4]
  IC50: > 111 µM (not active)
[5]
  IC50: 5.35 µM (active)

## O=C1C(Cl)=C(N2CCOCC2)C(=O)N1c1ccccc1Cl
[6]
  IC50: > 10 µM (inconclusive)
[7]
  AC50: 5.28 µM (active)
Genome polyprotein
  IC50: 23.3 µM (active)
Bcl-2-related protein A1 [8]
  IC50: > 100 µM (not active)
Bcl-2-related protein A1 [9]
  IC50: 5.83 µM (active)
Protein RecA
  EC50: 2.09 µM (active)

## COC(=O)c1[nH]c2cc(OC)ccc2c1NC(=O)c1ccc2c(c1)OCO2
[3]
  AC50: 17.8 µM (active)

## O=C(Nc1cccc(-c2nnc(-c3ccccc3)o2)c1)C1CCCCC1
[4]
  IC50: > 111 µM (not active)
[5]
  IC50: 6.03 µM (active)

## Cc1cc(C)cc(N(CC(=O)N2CCOCC2)S(=O)(=O)c2ccccc2)c1
Ion channel NompC
  EC50: > 29.9 µM (not active)
Mucolipin-3
  EC50: 3.71 µM (active)

## C=CCc1cccc(C2C(C)CCC3C(=O)N4C(CCC(C)C4c4cccc(CC=C)c4)C(=O)N32)c1 (stereo unspecified)
Cytochrome P450 2D6
  AC50: 3.16 µM (inconclusive)
Cytochrome P450 3A4
  AC50: 0.2 µM (inconclusive)
Cytochrome P450 2C9
  AC50: 3.98 µM (inconclusive)

## COc1ccc(/C=C2/NC(=O)N(CC(=O)Nc3cccc(C)c3)C2=O)cc1O
[4]
  IC50: > 111 µM (not active)
[5]
  IC50: 9.14 µM (active)

## C=C(C)C(O)/C=C/c1cccc(OC)c1 (stereo unspecified)
Cytochrome P450 2D6
  AC50: 7.94 µM (inconclusive)
Cytochrome P450 2C9
  AC50: 7.94 µM (inconclusive)

## N#C/C(=N\Nc1c(Cl)cccc1Cl)C(=O)NN
[10]
  AC50: 2.37 µM (active)
[11]
  IC50: 28.2 µM (not active)

## O=c1c(/C=N/O)c(Nc2ccccc2)nc2ccccn12
[11]
  IC50: > 69.5 µM (not active)
